Test results published in article PMC12373846, “Hemoglobin as a pseudoperoxidase and drug target for oxidative stress-related diseases” (Signal Transduction and Targeted Therapy, 2025).

Key:
CAT = experiment: ROS-Glo H2O2 assay with CAT; format: biochemical
Method: Hb (Sigma‒Aldrich, H7379), H2O2 (Sigma‒Aldrich, H1009), and Amplex Red reagents (Invitrogen, A12222) were obtained for the study. A 4 μM H2O2 solution was prepared in 50 mM sodium phosphate buffer (pH 7.2). Then, 49 μl of this mixture was mixed with 1 μl of the test compound in DMSO or distilled water. The mixture was combined with an assay mixture of Amplex Red reagent (20 mM stock to 0.1 mM) and HRP (200 U/ml stock to 0.2 U/ml) and added to the wells at 50 μl/well. After a 60-min incubation at 37 °C, resorufin production was quantified via a microplate fluorescence reader (SpectraMax iD5, Molecular Devices) at ex/em = 535/580 nm. The H2O2-decomposing activity was estimated via the following equation: (sample fluorescence-blank fluorescence)/(control […]-blank fluorescence) × 100. For the ROS-Glo assay, the H2O2 substrate solution and ROS-Glo detection solution were prepared according to the manufacturer’s instructions. 10 μM H2O2 and drugs were prepared as in the Amplex Red assay, with HRP, Hb, CAT, or GPx added as needed. […] Luminescence was measured via iD5 microplate readers. The H2O2-decomposing activity was estimated via the following equation: (sample luminescence-blank luminescence)/(control luminescence-blank luminescence) × 100. The U/ml was calculated on the basis of the amount of H2O2 reduced by Hb during the reaction, using μg/ml and U/mg.

[1] = biological target: T1, 5-HT2B (h) (agonist radioligand) (Homo sapiens, UniProt P41595); experiment: SafetyScreen87 panel; details: 1.0E-06 M; mean; read-out: % Inhibition of Control Specific Binding (1st, 2nd, Mean)
T1 construct: purchased DiscoverX KINOMEscan scanEDGE; Eurofins Cerep SafetyScreen87
Summary of the method: (§1)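 Binding to kinases is measured by competition at the targeted site in scanEDGE; activity at receptors and enzymes is measured in the Delta SafetyScreen87 collection of safety assays.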

[2] = biological target: T2, V1a (h) (agonist radioligand) (Homo sapiens, UniProt P37288); experiment: SafetyScreen87 panel; details: 1.0E-06 M; mean; read-out: % Inhibition of Control Specific Binding (1st, 2nd, Mean)
T2 construct: purchased DiscoverX KINOMEscan scanEDGE; Eurofins Cerep SafetyScreen87
Summary of the method: as §1

[3] = biological target: T3, 5-HT1A (h) (agonist radioligand) (Homo sapiens, UniProt P08908); experiment: SafetyScreen87 panel; details: 1.0E-06 M; mean; read-out: % Inhibition of Control Specific Binding (1st, 2nd, Mean)
T3 construct: purchased DiscoverX KINOMEscan scanEDGE; Eurofins Cerep SafetyScreen87
Summary of the method: as §1

GiD mice = experiment: Novel place recognition test, GiD mice; format: in vivo, mouse; details: GiD+KDS12025 0.1mpk ad libitum, Fig. S11e
C57BL/6J mice = experiment: Arterial blood P50 and Hb concentration; format: in vivo, mouse; details: 0.1, 1 or 10 mg/kg, 24 h
Method: The mice were placed in a supine position to expose the thoracic area. The mice were anesthetized with 2.5% sevoflurane and placed in the supine position. Mechanical ventilation was provided via a custom-made face mask connected to a ventilator (Ventstar small animal ventilator R415, RWD) set to deliver room air (FiO2 = 0.21), with a respiratory rate of 180 breaths per min and a tidal volume of 10 μl/g body weight. Without a surgical incision, a 1 ml syringe was directly inserted into the heart to collect bright red arterial blood. Care was taken to avoid venous sampling, and blood was passively drawn into the syringe under physiological arterial pressure. The collected arterial blood was immediately analyzed via an i-STAT® 1 Analyzer (Abbott) with CG8+ cartridges to measure pO2 (mmHg), SO2 (%), and hemoglobin concentrations (g/dL). P₅₀ values were calculated via the following equation: P50=pO2×1−SO2/SO2^1/n, n=2.711

SOD1^G93A mice = experiment: Survival and rotarod, SOD1^G93A ALS mice; format: in vivo, mouse; details: 1 and 10 mg/kg/day ad libitum
Method: SOD1^G93A mice (B6SJL-Tg(SOD1*G93A)1Gur/J) were purchased from Jackson Laboratory (strain number 002726) and used in the ALS mouse model. The mice were divided into four groups: Control, SOD1, and KDS12025 (1 and 10 mg/kg/day). Starting at 10 weeks of age, KDS12025 was administered via ad libitum drinking water at doses of 1 mg/kg/day and 10 mg/kg/day. The control and SOD1 groups received standard drinking water. Motor function was evaluated weekly via the rotarod performance test, and the ratio of running time was normalized to that of littermate controls to assess motor coordination and endurance over time. Survival of the mice was monitored for up to 24 weeks, and median survival times were calculated for each group.

MARK3 = biological target: T4, MARK3 (Homo sapiens, UniProt P27448); experiment: KINOMEscan; format: binding; details: 10000 nM; read-out: Percent Control
T4 construct: purchased DiscoverX KINOMEscan scanEDGE; Eurofins Cerep SafetyScreen87
Method: (§2) The possibility of KDS12025 on kinase off-target, the KINOMEscan panel of scanEDGE assay was conducted in DiscoverX (CA, USA) using a site-directed competition binding with the test compounds. The assay results are given in Supplementary Table 4 and experimental information is available on the DiscoverX web page (www.discoverx.com). Moreover, the Delta SafetyScreen87 panel assay was conducted in Eurofins Discovery (Cerep, France). The assay results are given in Supplementary Table 5 and experimental information is available on the DiscoverX web page (https://www.eurofinsdiscoveryservices.com).

MEK1 = biological target: T5, MEK1 (Homo sapiens, UniProt Q02750); experiment: KINOMEscan; format: binding; details: 10000 nM; read-out: Percent Control
T5 construct: purchased DiscoverX KINOMEscan scanEDGE; Eurofins Cerep SafetyScreen87
Method: as §2

EPHA2 = biological target: T6, EPHA2 (Homo sapiens, UniProt P29317); experiment: KINOMEscan; format: binding; details: 10000 nM; read-out: Percent Control
T6 construct: purchased DiscoverX KINOMEscan scanEDGE; Eurofins Cerep SafetyScreen87
Method: as §2

PIM2 = biological target: T7, PIM2 (Homo sapiens, UniProt Q9P1W9); experiment: KINOMEscan; format: binding; details: 10000 nM; read-out: Percent Control
T7 construct: purchased DiscoverX KINOMEscan scanEDGE; Eurofins Cerep SafetyScreen87
Method: as §2

BRAF = biological target: T8, BRAF (Homo sapiens, UniProt P15056); experiment: KINOMEscan; format: binding; details: 10000 nM; read-out: Percent Control
T8 construct: purchased DiscoverX KINOMEscan scanEDGE; Eurofins Cerep SafetyScreen87
Method: as §2

MET = biological target: T9, MET (Homo sapiens, UniProt P08581); experiment: KINOMEscan; format: binding; details: 10000 nM; read-out: Percent Control
T9 construct: purchased DiscoverX KINOMEscan scanEDGE; Eurofins Cerep SafetyScreen87
Method: as §2

PLK1 = biological target: T10, PLK1 (Homo sapiens, UniProt P53350); experiment: KINOMEscan; format: binding; details: 10000 nM; read-out: Percent Control
T10 construct: purchased DiscoverX KINOMEscan scanEDGE; Eurofins Cerep SafetyScreen87
Method: as §2

ERBB2 = biological target: T11, ERBB2 (Homo sapiens, UniProt P04626); experiment: KINOMEscan; format: binding; details: 10000 nM; read-out: Percent Control
T11 construct: purchased DiscoverX KINOMEscan scanEDGE; Eurofins Cerep SafetyScreen87
Method: as §2

CDK11 = biological target: T12, CDK11 (Homo sapiens, UniProt Q9BWU1); experiment: KINOMEscan; format: binding; details: 10000 nM; read-out: Percent Control
T12 construct: purchased DiscoverX KINOMEscan scanEDGE; Eurofins Cerep SafetyScreen87
Method: as §2

CSF1R = biological target: T13, CSF1R (Homo sapiens, UniProt P07333); experiment: KINOMEscan; format: binding; details: 10000 nM; read-out: Percent Control
T13 construct: purchased DiscoverX KINOMEscan scanEDGE; Eurofins Cerep SafetyScreen87
Method: as §2

KIT(V559D,T670I) = biological target: T14, KIT(V559D,T670I) (Homo sapiens, UniProt P10721, T670I/V559D); experiment: KINOMEscan; format: binding; details: 10000 nM; read-out: Percent Control
T14 construct: purchased DiscoverX KINOMEscan scanEDGE; Eurofins Cerep SafetyScreen87
Method: as §2

VEGFR2 = biological target: T15, VEGFR2 (Homo sapiens, UniProt P35968); experiment: KINOMEscan; format: binding; details: 10000 nM; read-out: Percent Control
T15 construct: purchased DiscoverX KINOMEscan scanEDGE; Eurofins Cerep SafetyScreen87
Method: as §2

T11 sequence (P04626 23-1255): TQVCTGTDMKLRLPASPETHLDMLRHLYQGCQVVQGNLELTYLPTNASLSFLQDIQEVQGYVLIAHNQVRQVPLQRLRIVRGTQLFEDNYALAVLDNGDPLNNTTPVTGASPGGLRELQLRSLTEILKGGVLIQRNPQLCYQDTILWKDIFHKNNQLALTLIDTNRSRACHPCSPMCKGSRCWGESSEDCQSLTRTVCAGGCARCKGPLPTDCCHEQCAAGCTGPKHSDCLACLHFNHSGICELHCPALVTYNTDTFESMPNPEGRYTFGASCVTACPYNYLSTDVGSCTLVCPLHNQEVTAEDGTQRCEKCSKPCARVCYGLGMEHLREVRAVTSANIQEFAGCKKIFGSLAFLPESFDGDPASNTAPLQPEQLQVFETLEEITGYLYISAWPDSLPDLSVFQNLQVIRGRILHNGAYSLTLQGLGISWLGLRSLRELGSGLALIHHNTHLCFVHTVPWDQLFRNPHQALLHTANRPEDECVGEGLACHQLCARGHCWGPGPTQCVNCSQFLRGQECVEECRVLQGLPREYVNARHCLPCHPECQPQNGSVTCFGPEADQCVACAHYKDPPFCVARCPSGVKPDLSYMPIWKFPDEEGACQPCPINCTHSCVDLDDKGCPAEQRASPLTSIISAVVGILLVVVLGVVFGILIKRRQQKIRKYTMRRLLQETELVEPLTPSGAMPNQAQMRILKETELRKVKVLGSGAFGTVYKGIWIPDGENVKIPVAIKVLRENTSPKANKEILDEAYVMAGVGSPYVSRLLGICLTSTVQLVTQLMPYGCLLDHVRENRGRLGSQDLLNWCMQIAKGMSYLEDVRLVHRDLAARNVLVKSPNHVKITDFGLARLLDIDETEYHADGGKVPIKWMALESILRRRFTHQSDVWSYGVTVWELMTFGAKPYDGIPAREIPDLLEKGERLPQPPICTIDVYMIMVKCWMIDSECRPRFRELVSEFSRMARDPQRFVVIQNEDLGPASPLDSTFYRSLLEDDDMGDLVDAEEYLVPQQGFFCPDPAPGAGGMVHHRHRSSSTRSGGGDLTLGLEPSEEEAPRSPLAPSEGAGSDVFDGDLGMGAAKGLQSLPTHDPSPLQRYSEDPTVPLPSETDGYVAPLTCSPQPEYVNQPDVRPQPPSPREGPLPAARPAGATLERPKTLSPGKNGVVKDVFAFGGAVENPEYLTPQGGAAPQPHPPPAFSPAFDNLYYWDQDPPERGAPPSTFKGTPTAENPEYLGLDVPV
T7 sequence (Q9P1W9 whole entry): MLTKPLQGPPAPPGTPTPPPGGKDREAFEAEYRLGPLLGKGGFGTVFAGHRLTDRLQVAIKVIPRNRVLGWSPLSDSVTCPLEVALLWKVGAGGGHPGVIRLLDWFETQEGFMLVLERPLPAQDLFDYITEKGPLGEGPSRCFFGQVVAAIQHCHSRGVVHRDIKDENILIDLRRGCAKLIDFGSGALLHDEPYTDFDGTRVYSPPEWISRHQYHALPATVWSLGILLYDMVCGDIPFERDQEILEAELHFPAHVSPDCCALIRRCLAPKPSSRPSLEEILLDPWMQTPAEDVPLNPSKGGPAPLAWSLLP
T15 sequence (P35968 20-1356): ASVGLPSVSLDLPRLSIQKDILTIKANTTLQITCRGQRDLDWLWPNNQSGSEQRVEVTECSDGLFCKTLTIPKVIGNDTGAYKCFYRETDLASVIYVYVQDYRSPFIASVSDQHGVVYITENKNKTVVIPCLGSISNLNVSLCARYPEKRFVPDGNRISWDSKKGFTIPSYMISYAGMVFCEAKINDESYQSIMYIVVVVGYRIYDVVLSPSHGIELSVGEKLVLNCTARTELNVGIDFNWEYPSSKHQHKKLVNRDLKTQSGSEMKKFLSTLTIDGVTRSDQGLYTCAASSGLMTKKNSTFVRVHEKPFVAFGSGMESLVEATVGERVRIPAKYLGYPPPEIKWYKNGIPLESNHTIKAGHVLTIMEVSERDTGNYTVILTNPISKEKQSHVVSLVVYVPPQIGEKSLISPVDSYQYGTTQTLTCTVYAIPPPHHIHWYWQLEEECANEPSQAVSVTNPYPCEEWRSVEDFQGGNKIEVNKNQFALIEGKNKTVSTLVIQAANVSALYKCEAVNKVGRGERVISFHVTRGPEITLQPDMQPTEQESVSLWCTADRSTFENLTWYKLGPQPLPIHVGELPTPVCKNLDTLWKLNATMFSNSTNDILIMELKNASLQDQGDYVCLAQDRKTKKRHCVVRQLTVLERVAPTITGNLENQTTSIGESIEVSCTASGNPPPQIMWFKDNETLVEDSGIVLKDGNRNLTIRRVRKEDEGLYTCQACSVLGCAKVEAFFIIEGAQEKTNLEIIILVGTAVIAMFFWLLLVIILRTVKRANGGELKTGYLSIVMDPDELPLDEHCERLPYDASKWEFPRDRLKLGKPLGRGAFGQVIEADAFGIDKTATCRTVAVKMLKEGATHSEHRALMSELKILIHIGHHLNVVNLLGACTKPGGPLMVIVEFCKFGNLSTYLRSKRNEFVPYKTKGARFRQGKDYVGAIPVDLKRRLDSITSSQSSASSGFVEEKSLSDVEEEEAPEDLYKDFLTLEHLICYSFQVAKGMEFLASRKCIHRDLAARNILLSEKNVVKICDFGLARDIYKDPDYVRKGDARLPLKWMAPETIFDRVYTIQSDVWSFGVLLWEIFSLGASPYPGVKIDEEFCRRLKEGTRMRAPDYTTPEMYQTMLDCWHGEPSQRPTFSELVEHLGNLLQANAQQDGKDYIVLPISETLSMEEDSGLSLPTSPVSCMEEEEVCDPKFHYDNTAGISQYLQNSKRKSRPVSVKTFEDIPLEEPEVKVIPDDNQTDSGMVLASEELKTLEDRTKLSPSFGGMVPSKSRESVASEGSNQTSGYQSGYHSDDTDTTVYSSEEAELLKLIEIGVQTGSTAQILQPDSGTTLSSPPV
T12 sequence (Q9BWU1 whole entry): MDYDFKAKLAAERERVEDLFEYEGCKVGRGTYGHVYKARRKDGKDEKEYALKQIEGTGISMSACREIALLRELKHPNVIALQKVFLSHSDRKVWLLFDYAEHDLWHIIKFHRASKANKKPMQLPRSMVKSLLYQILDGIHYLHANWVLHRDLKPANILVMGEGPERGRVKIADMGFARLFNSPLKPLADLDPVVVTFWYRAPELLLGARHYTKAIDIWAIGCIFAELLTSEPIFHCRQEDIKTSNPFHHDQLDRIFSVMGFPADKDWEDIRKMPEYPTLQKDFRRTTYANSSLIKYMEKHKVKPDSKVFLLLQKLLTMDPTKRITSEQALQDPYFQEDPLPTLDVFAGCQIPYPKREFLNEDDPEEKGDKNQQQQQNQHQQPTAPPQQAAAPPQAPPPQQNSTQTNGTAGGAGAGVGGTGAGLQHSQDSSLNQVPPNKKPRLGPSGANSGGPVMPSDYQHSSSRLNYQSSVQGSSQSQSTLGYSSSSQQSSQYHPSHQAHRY
T14 sequence (P10721 26-976 V559D/T670I): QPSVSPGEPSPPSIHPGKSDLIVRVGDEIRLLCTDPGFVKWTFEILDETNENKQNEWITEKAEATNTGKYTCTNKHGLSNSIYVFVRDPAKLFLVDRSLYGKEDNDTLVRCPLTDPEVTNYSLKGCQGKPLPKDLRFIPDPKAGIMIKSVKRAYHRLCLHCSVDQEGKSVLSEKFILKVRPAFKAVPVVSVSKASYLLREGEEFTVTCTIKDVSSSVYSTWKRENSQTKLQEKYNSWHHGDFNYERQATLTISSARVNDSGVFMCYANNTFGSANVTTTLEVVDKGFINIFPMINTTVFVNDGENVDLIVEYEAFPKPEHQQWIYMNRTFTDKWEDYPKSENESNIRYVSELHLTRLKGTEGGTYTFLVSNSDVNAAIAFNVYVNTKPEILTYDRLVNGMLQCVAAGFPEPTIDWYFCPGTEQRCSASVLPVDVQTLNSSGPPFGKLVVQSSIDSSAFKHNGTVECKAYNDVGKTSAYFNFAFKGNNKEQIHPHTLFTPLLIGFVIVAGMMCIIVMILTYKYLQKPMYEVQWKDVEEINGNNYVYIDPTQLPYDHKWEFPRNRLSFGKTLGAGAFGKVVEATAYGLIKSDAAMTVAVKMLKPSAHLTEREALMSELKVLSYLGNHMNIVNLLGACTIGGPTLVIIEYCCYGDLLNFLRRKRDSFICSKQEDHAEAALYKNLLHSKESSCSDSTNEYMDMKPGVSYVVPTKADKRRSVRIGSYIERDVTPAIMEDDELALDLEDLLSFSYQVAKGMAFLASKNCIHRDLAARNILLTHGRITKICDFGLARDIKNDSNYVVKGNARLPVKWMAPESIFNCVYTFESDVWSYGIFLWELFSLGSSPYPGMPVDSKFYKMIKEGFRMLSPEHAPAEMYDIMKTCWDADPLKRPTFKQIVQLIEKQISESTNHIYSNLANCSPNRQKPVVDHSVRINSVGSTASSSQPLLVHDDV
T5 sequence (Q02750 whole entry): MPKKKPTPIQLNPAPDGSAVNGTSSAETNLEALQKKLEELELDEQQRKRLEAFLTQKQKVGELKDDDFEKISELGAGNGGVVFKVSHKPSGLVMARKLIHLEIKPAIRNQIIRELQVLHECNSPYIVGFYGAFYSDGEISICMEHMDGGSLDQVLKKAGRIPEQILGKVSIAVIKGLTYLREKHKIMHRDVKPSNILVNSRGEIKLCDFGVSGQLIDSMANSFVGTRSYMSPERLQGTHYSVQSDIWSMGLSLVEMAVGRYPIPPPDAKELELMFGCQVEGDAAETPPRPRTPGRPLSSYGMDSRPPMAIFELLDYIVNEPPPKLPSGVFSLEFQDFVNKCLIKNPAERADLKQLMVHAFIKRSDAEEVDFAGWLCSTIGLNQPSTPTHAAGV

## O=C(O)c1cc(NCCc2ccc(C(F)(F)F)cc2)ccc1O [HTPEB, 2-hydroxy-5-[2-(4-trifluoromethyl-phenyl)-ethylamino]-benzoic acid, reference compound]
CAT
  effect on CAT activity: did not increase

## CNc1ccc(NCCc2ccccc2OC)cc1.Cl [KDS12025, N^1-(2-methoxyphenethyl)-N^4-methylbenzene-1,4-diamine hydrochloride salt]
[1]
  activity: 63.9%
[2]
  activity: 110%
[3]
  activity: 62.4%
GiD mice
  NPR discrimination index: WT (0.2256±0.0275, n=3), GiD (-0.02438±0.07989, n=3), GiD+KDS12025 (0.1mpk) (0.2255±0.02347, n=4) One-way ANOVA with Tukey's multiple comparisons test, F(2,7) = 9.285, p = 0.01 WT vs. GiD, p = 0.02; WT vs. GiD+KDS12025 (0.1mpk), p > 0.99; GiD vs. GiD+KDS12025 (0.1mpk), p = 0.01
C57BL/6J mice
  arterial oxygen affinity (P50) vs vehicle: did not differ
  total Hb concentration in the blood: unaffected
SOD1^G93A mice; rotarod
  delay of motor impairment onset: more than 7 weeks
SOD1^G93A mice; untreated 140
  median survival: 168 days
MARK3
  remaining binding at 10 µM: 66%
MEK1
  remaining binding at 10 µM: 82%
EPHA2
  remaining binding at 10 µM: 89%
PIM2
  remaining binding at 10 µM: 64%
BRAF
  remaining binding at 10 µM: 100%
MET
  remaining binding at 10 µM: 82%
PLK1
  remaining binding at 10 µM: 100%
ERBB2
  remaining binding at 10 µM: 100%
CDK11
  remaining binding at 10 µM: 73%
CSF1R
  remaining binding at 10 µM: 100%
KIT(V559D,T670I)
  remaining binding at 10 µM: 94%
VEGFR2
  remaining binding at 10 µM: 100%
